# According to ChEMBL document CHEMBL3044865, “Herbicidal Activity and Characteristics of Pyraflufen-ethyl for Controlling Broad-leaved Weeds in Cereals” (J Pestic Sci, 2002):
# The source made the active and inactive calls. The calls are words filed in the database; no cut-off is given here.
# Columns and labels:
# Viola arvensis [1] = assay: Herbicidal activity against Viola arvensis assessed as killing at 5 g/ha measured after 21 days after treatment under greenhouse by time-course analysis; type: functional
# Hordeum vulgare [2] = assay: Phytotoxicity in Hordeum vulgare (barley) assessed as injury at 10 g/ha post emergence application measured after 21 days after treatment; type: organism-based; settings: in vivo, other, 504 h
# Triticum aestivum = assay: Phytotoxicity in Triticum aestivum (wheat) assessed as injury at 30 g/ha pre emergence application measured after 21 days after treatment; type: organism-based; settings: in vivo, other, 504 h
# Viola arvensis [3] = assay: Herbicidal activity against Viola arvensis assessed as killing at 1 g/ha post emergence application measured after 21 days after treatment; type: functional
# [4] = Ratio of compound ED90 to […] ED90 for herbicidal activity against Matricaria inodora
# Viola arvensis [5] = assay: Ratio of compound ED90 to necoprop-p ED90 for herbicidal activity against Viola arvensis
# Viola arvensis [6] = assay: Herbicidal activity against Viola arvensis assessed as killing at 3 g/ha post emergence application measured after 21 days after treatment; type: functional
# Stellaria media [7] = assay: Herbicidal activity against Stellaria media assessed as killing at 100 g/ha post emergence application measured after 21 days after treatment; type: functional
# Hordeum vulgare [8] = assay: Phytotoxicity in Hordeum vulgare (barley) assessed as injury at 10 g/ha pre emergence application measured after 21 days after treatment; type: organism-based; settings: in vivo, other, 504 h
# Stellaria media [9] = assay: Herbicidal activity against Stellaria media assessed as killing at 1 g/ha post emergence application measured after 21 days after treatment; type: functional
# Avena fatua [10] = assay: Herbicidal activity against Avena fatua assessed as killing at 3 g/ha post emergence application measured after 21 days after treatment; type: functional
# Veronica hederifolia [11] = assay: Herbicidal activity against Veronica hederaefolia assessed as killing at 1 g/ha post emergence application measured after 21 days after treatment; type: functional
# Avena fatua [12] = assay: Herbicidal activity against Avena fatua assessed as killing at 0.3 g/ha post emergence application measured after 21 days after treatment; type: functional, organism-based
# Galium aparine [13] = assay: Herbicidal activity against Galium aparine assessed as killing at 300 g/ha post emergence application measured after 21 days after treatment; type: functional
# Avena fatua [14] = assay: Herbicidal activity against Avena fatua assessed as killing at 1 g/ha post emergence application measured after 21 days after treatment; type: functional
# Viola arvensis [15] = assay: Herbicidal activity against Viola arvensis assessed as killing at 30 g/ha post emergence application measured after 21 days after treatment; type: functional
# Alopecurus myosuroides = assay: Herbicidal activity against Alopecurus myosuroides assessed as killing at 100 g/ha post emergence application measured after 21 days after treatment; type: functional, organism-based
# [16] = target: T1, Protoporphyrinogen oxidase (Medicago truncatula) (UniProt G7L3C0); assay: Inhibition of Viola arvensis protoporphyrinogen oxidase by post-emergence herbicidal activity assay
# T1 sequence (whole entry): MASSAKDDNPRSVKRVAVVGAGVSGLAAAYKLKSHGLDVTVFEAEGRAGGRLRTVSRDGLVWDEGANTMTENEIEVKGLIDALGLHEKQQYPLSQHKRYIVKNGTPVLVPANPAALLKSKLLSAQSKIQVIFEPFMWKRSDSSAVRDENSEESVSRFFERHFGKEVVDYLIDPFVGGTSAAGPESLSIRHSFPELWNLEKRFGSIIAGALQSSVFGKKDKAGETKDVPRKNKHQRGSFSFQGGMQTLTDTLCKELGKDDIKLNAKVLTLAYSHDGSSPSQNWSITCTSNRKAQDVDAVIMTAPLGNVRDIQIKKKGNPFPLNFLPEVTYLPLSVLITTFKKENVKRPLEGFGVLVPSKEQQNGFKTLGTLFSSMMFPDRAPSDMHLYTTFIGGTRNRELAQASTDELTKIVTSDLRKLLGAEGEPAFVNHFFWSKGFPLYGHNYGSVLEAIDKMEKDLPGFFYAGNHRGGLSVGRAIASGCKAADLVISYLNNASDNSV
# Galium aparine [17] = assay: Herbicidal activity against Galium aparine assessed as killing at 10 g/ha pre emergence application measured after 21 days after treatment; type: functional
# Hordeum vulgare [18] = assay: Phytotoxicity in Hordeum vulgare (barley) assessed as injury at 1 g/ha post emergence application measured after 21 days after treatment; type: organism-based; settings: in vivo, other, 504 h
# Veronica hederifolia [19] = assay: Herbicidal activity against Veronica hederaefolia assessed as killing at 300 g/ha post emergence application measured after 21 days after treatment; type: functional
smiles,measurement,setting,value
CCOC(=O)COc1cc(-c2nn(C)c(OC(F)F)c2Cl)c(F)cc1Cl [PYRAFLUFEN-ETHYL],Activity,Viola arvensis [1],90%
same,Activity,Hordeum vulgare [2],11%
same,Activity,Triticum aestivum,Non-toxic
same,Activity,Viola arvensis [3],80%
same,Ratio,[4],3330
same,Ratio,Viola arvensis [5],200
same,Activity,Viola arvensis [6],80%
same,Activity,Stellaria media [7],90%
same,Activity,Hordeum vulgare [8],Non-toxic
same,Activity,Stellaria media [9],100%
same,Activity,Avena fatua [10],1%
same,Activity,Veronica hederifolia [11],90%
same,Activity,Avena fatua [12],inactive
same,Activity,Galium aparine [13],50%
same,Activity,Avena fatua [14],1%
same,Activity,Viola arvensis [15],40%
same,Activity,Alopecurus myosuroides,inactive
same,ED90,[16],5 gAi/ha
same,Activity,Galium aparine [17],11%
same,Activity,Hordeum vulgare [18],Non-toxic
same,Activity,Veronica hederifolia [19],80%
